Values joined by “and” are separate entries in the source; they are usually repeats but may differ in a detail not shown here. Equal values may be shown once. Read-outs that look alike come from different tables or passages of the source.
Assays:
[1] = Secondary dose-response assay: cytotoxicity (CC50); settings: human
Procedure: (§1) Dividing cultures of AVA5 cells are treated once daily for three days (media is changed with each addition of compound) with 4 concentrations of test compound (2 cultures per concentration). […] Intracellular HCV RNA levels and cytotoxicity are assessed 24 hours following the last treatment as described for the primary assays. The 50% and 90% effective antiviral concentrations (EC50, EC90) and the 50% cytotoxic concentrations (CC50) are calculated and used to generate Selectivity Indexes (S.I., CC50/EC50). An S.I of 10, or greater, may be considered to be a selective antiviral effect.
(§2) The values presented in Table 6 were calculated by linear regression analysis using data from all treated cultures. The standard deviation was calculated using the error of regression generated from the linear regression analysis.

[2] = test system: HCV replicons in AVA5 cell cultures; assay: Secondary in vitro anti-HCV dose-response assay: intracellular HCV RNA; parameters: Intracellular HCV RNA Levels: dose or concentration left out as unconfirmed; settings: for Intracellular HCV RNA Levels: normalized to β-actin RNA
Procedure: as §1, §2
Analysis of intracellular HCV RNA was performed 24 hours following the final treatment. A total of […] were treated a each concentration for each compound. HCV RNA levels were normalized to the level of β-actin RNA in each individual sample.

[3] = Primary screen cytotoxicity: neutral red dye uptake; type: cell-based, human; settings: human; toxicity control, no antiviral activity; read-out: approximate CC90
Procedure: (§3) Primary in vitro anti-HCV screen. The antiviral activity of test compounds were assayed in the stably HCV RNA-replicating cell line, AVA5, derived by transfection of the human hepatoblastoma cell line, Huh7 (Blight, et al., 2000, Science 290: 1972). The test compounds were added to dividing cultures once daily for three days. The media was changed with each addition of the compounds. Cultures generally start the assay at 30–50% confluence and reach confluence during the last day of treatment.
(§4) Assays were conducted using a single dose of test compound. Duplicate cultures for HCV RNA levels (on 48-well plates) and triplicate cultures for cytotoxicity (on 96-well plates) are used.
(§5) Intracellular HCV RNA levels were measured using a commercial assay (Veresant®, Bayer Diagnostics, Inc. Ross, et al. (2002) J. Virol. Meth. 101:159–168, Quantitation of hepatitic C virus RNA by third generation branched DNA-based signal amplification assay). Cytotoxicity was measured using an established neutral red dye uptake assay (Korba, B. E. and J. L. Gerin. 1992. Use of a standardized cell culture assay to determine activities of nucleoside analogs against hepatitis B virus relication. Antivir. Res. 19:55–70). HCV RNA levels in the treated cultures are expressed as a percentage of the mean levels of RNA detected in untreated cultures. A level of 30% or less, HCV RNA relative to control cultures may be considered to be a positive antiviral effect. A level of 50% or less, neutral red dye uptake relative to control cultures may be considered to be a cytotoxic effect.

[4] = test system: AVA5 cell line (derived from human hepatoblastoma cell line Huh7); assay: as above; type: cell-based; settings: for Neutral Red % Control / Neutral Red O.D.: AVA5
Procedure: as §3, §4, §5

[5] = test system: HCV RNA in stably HCV RNA-replicating cell line AVA5; assay: Primary in vitro anti-HCV screen: intracellular HCV RNA levels in AVA5 cells (branched DNA assay); type: cell-based, Hepatitis C virus; settings: for HCV % Control / HCV Copies/ml: AVA5, duplicate cultures; for effect on HCV RNA (treatment controls, in words): at the control concentrations used
Procedure: Primary in vitro anti-HCV screen. The antiviral activity of test compounds were assayed in the stably HCV RNA-replicating cell line, AVA5, derived by transfection of the human hepatoblastoma cell line, Huh7 (Blight, et al., 2000, Science 290: 1972). The test compounds were added to dividing cultures once daily for three days. The media was changed with each addition of the compounds. […] Intracellular HCV RNA levels and cytotoxicity are assessed 24 hours after the last dose of compound.
as §4, §5

AVA5 cells = assay: Secondary dose-response assay: cytotoxicity (CC50)
Procedure: as §1, §2

[6] = test system: HCV RNA-replicating cell line AVA5; assay: Normalized Viral Assay; type: cell-based, Hepatitis C virus
Procedure: as §3

AVA5 cell line [7] = assay: ATP Cell Viability
AVA5 cell line [8] = assay: MTS Cell Viability
[9] = AVA5, HCV RNA, linear regression
[10] = AVA5, three days treatment, linear regression
[11] = AVA5, values for α-interferon in IU/ml

| Compound | Intracellular HCV RNA Levels [2]; 10 [genomic copies/cell] | Intracellular HCV RNA Levels [2]; 30 [genomic copies/cell] | Intracellular HCV RNA Levels [2]; 100 [genomic copies/cell] | S.I. (CC50/EC90) ([2]; selectivity index, AVA5) | effect on HCV RNA (treatment controls, in words) [5] | Intracellular HCV RNA Levels [2]; 300 [genomic copies/cell] | EC50 [2, 9] [µM] | EC90 [2, 9] [µM] | Normalized Viral Assay ([6]; 1 μM) | Normalized Viral Assay ([6]; 5 μM) | Normalized Viral Assay ([6]; 10 μM) | ATP Cell Viability (AVA5 cell line [7]; 1 μM) | ATP Cell Viability (AVA5 cell line [7]; 5 μM) | ATP Cell Viability (AVA5 cell line [7]; 10 μM) | CC50 (AVA5 cells; [10]) [µM] | MTS Cell Viability (AVA5 cell line [8]; 1 μM) | MTS Cell Viability (AVA5 cell line [8]; 5 μM) | MTS Cell Viability (AVA5 cell line [8]; 10 μM) | other results |
| --- | --- | --- | --- | --- | --- | --- | --- | --- | --- | --- | --- | --- | --- | --- | --- | --- | --- | --- | --- |
| NC(=O)c1ncn([C@@H]2O[C@H](CO)[C@@H](O)[C@H]2O)n1 [Ribavirin, ribavirin, reference compound] | 1379495 ± 69125 | 640505 ± 29715 | 250445 ± 5015 | 1.9 | induced loss of HCV RNA |  |  |  |  |  |  |  |  |  |  |  |  |  | CC50 at 3 days [1]: 54 ± 2.4 µM; EC50 ([2]; Hepatitis C virus, Ava5): 29 ± 2.5 µM; EC90 ([2]; Hepatitis C virus, Ava5): 140 ± 11 µM; CC90 at 3 days [3]: ~100 µM; Neutral Red % Control ([4]; 100 μM): 18 % Control and 17 % Control; Neutral Red O.D. ([4]; 100 μM): 0.394 O.D. and 0.378 O.D.; effect on cell viability (treatment control, in words) ([4]; compared with the loss of HCV RNA): reduction in cell viability was nearly equivalent; HCV % Control ([5]; 100 μM): 13 % Control and 9 % Control; HCV Copies/ml ([5]; 100 μM): 180813 Copies/ml and 115331 Copies/ml |
| Cc1cc(C)cc(Sc2c(Sc3cccc(Cl)c3)c3ccccc3oc2=O)c1 [compound 468] | 1317765 ± 55645 | 473805 ± 21625 | 194410 ± 7620 |  |  | 56535 ± 8005 | 1.2 ± 0.1 | 8.3 ± 0.6 | 72.14 | 35.09 | 18.06 |  |  |  |  |  |  |  | CC50 (AVA5 cells): > 300 µM; S.I. (CC50/EC90) [2]: >250 |
| O=c1cc(Sc2c(Cl)cccc2Cl)c2cc(F)ccc2o1 [compound 902] | 919880 ± 44000 | 332975 ± 6745 | 91645 ± 7385 | >611 |  | 12940 ± 5640 | 0.491 ± 0.024 | 5.2 ± 0.6 | 41.92 | 12.03 | 5.61 | 97.96 | 101.74 | 62.95 | > 300 | 116.05 | 86.70 | 84.52 | Neutral Red % Control ([4]; 10 μM, dye uptake relative to untreated cultures, listed as VQ_902): 95 % Control and 100 % Control; Neutral Red O.D. ([4]; 10 μM, listed as VQ_902): 2.122 O.D. and 2.228 O.D.; HCV % Control ([5]; 10 μM, HCV RNA as percentage of untreated cultures, listed as VQ_902): 9 % Control and 7 % Control; HCV Copies/ml ([5]; 10 μM, once daily for three days, listed as VQ_902): 124712 Copies/ml and 92446 Copies/ml |
| O=c1cc(Sc2ccc(F)cc2F)c2cc(F)ccc2o1 [compound 910] | 1176970 ± 27620 | 494605 ± 6235 | 163575 ± 6325 | >214 |  | 58165 ± 7635 | 1.4 ± 0.1 | 12 ± 1.1 | 32.93 | 9.51 | 3.41 | 115.34 | 97.48 | 84.78 | > 300 | 105.74 | 92.64 | 79.43 | Neutral Red % Control ([4]; 10 μM, dye uptake relative to untreated cultures, listed as VQ_910): 99 % Control and 103 % Control; Neutral Red O.D. ([4]; 10 μM, listed as VQ_910): 2.214 O.D. and 2.293 O.D.; HCV % Control ([5]; 10 μM, HCV RNA as percentage of untreated cultures, listed as VQ_910): 20 % Control and 18 % Control; HCV Copies/ml ([5]; 10 μM, once daily for three days, listed as VQ_910): 266217 Copies/ml and 246717 Copies/ml |
| α-interferon |  |  |  | >5556 | induced significant depressions of HCV RNA replication |  |  |  |  |  |  |  |  |  |  |  |  |  | CC50 (AVA5 cells; [11]): >10000^1,2 IU/ml; Intracellular HCV RNA Levels ([2]; 1.0 IU/ml): 1169765 ± 37135 genomic copies/cell; Intracellular HCV RNA Levels ([2]; 3.0 IU/ml): 329605 ± 26035 genomic copies/cell; Intracellular HCV RNA Levels ([2]; 10 IU/ml): 103060 ± 14470 genomic copies/cell; EC50 [2, 11]: 1.8 ± 0.2^1 IU/ml; EC90 [2, 11]: 8.2 ± 0.6^1 IU/ml; Neutral Red % Control ([4]; 10 IU/ml, listed as rHu α-IFN): 99 % Control and 103 % Control; Neutral Red O.D. ([4]; 10 IU/ml, listed as rHu α-IFN): 2.217 O.D. and 2.291 O.D.; HCV % Control ([5]; 10 IU/ml, listed as rHu α-IFN): 5 % Control and 6 % Control; HCV Copies/ml ([5]; 10 IU/ml, listed as rHu α-IFN): 71460 Copies/ml and 85467 Copies/ml; approximate EC90 ([5]; positive antiviral control, no cytotoxicity): ~10 IU/ml |

Source: US7148253B2, “4-thio coumarins” (priority 2002, dated 2006)
